{"source": "ChEMBL document CHEMBL1122192", "about": "“Nitro and amino derivatives of lucanthone as antitumor agents” (1982)", "key": {"P388 [1]": {"tested_on": "P388", "test": "In vivo antitumor activity against P-388 lymphocytic leukemia at the dose of 100 mg/kg", "format": "functional, Mus musculus"}, "P388 [2]": {"tested_on": "P388", "test": "In vivo antitumor activity against P-388 lymphocytic leukemia at the dose of 200 mg/kg", "format": "functional, Mus musculus"}, "P388 [3]": {"tested_on": "P388", "test": "In vivo antitumor activity against P-388 lymphocytic leukemia at the dose of 50 mg/kg", "format": "functional, Mus musculus"}, "P388 [4]": {"tested_on": "P388", "test": "In vivo antitumor activity against P-388 lymphocytic leukemia at the dose of 12.5 mg/kg", "format": "functional, Mus musculus"}, "P388 [5]": {"tested_on": "P388", "test": "In vivo antitumor activity against P-388 lymphocytic leukemia at the dose of 25 mg/kg", "format": "functional, Mus musculus"}, "P388 [6]": {"tested_on": "P388", "test": "In vivo antitumor activity against P-388 lymphocytic leukemia at the dose of 200 mg/kg; Toxic", "format": "functional, organism-based", "parameters": "dose 200 mg/kg", "details": "Mus musculus"}}, "data": [{"compound": "CCN(CC)CCNc1ccc([N+](=O)[O-])c2sc3ccccc3c(=O)c12", "values": [{"measurement": "T/C", "setting": "P388 [1]", "value": 145}, {"measurement": "T/C", "setting": "P388 [2]", "value": 178}, {"measurement": "T/C", "setting": "P388 [3]", "value": 142}]}, {"compound": "O=c1c2ccccc2sc2c([N+](=O)[O-])ccc(NCCNCCO)c12", "values": [{"measurement": "T/C", "setting": "P388 [4]", "value": 133}, {"measurement": "T/C", "setting": "P388 [5]", "value": 141}, {"measurement": "T/C", "setting": "P388 [3]", "value": 120}]}, {"compound": "CCN(CC)CCNc1ccc(C)c2sc3c(N)cccc3c(=O)c12", "values": [{"measurement": "T/C", "setting": "P388 [1]", "value": 113}, {"measurement": "T/C", "setting": "P388 [2]", "value": 123}, {"measurement": "T/C", "setting": "P388 [3]", "value": 100}]}, {"compound": "CCN(CC)CCNc1ccc(C)c2sc3ccc(N)cc3c(=O)c12", "values": [{"measurement": "T/C", "setting": "P388 [4]", "value": 120}, {"measurement": "T/C", "setting": "P388 [5]", "value": 103}, {"measurement": "T/C", "setting": "P388 [3]", "value": 138}]}, {"compound": "CN(C)CCNc1ccc([N+](=O)[O-])c2sc3ccccc3c(=O)c12", "values": [{"measurement": "T/C", "setting": "P388 [1]", "value": 103}, {"measurement": "T/C", "setting": "P388 [4]", "value": 114}, {"measurement": "T/C", "setting": "P388 [5]", "value": 135}, {"measurement": "T/C", "setting": "P388 [3]", "value": 143}]}, {"compound": "CN(C)CCNc1ccc(N)c2sc3ccccc3c(=O)c12", "values": [{"measurement": "T/C", "setting": "P388 [1]", "value": 121}, {"measurement": "T/C", "setting": "P388 [6]", "value": "Toxic"}, {"measurement": "T/C", "setting": "P388 [3]", "value": 100}]}, {"compound": "Nc1ccc(NCCNCCO)c2c(=O)c3ccccc3sc12", "values": [{"measurement": "T/C", "setting": "P388 [3]", "value": 132}]}, {"compound": "CCN(CC)CCNc1ccc(N)c2sc3ccccc3c(=O)c12", "values": [{"measurement": "T/C", "setting": "P388 [1]", "value": 122}, {"measurement": "T/C", "setting": "P388 [2]", "value": 125}, {"measurement": "T/C", "setting": "P388 [3]", "value": 107}]}]}
